Target: T1, human glucagon receptor (Homo sapiens, UniProt P47871)
T1 construct: made in house; host or cells: FreeStyle CHO cells, transient transfection with pMSRαneo/hGCGR; membrane fraction (35,000 rpm pellet)
Assay: Glucagon binding inhibitory activity ([125I]-glucagon binding to glucagon receptor membrane protein)
Conditions: for IC50: human glucagon receptor membrane protein, [125I]-glucagon, 90 min room temperature; for inhibition at 10 µM: test compound 10 μM, 0.4% DMSO = 0%, non-labeled glucagon 1 μM = 100%, read-out: inhibitory rate (%) at 10 μM
Protocol: The glucagon binding inhibitory action of the compound of the present invention was evaluated by the following method.
(1) Cloning of Human Glucagon Receptor Gene
Human glucagon receptor gene was cloned by PCR reaction using human pancreas Marathon-ready cDNA (Clontech) as a template and the following primer set.
PCR reaction was performed using Advantage 2 polymerase (Clontech) and according to the attached protocol. The obtained PCR product was electrophoresed on an agarose gel (1%). An about 1.4 kb of DNA fragment containing a glucagon receptor gene was recovered from the gel and digested with restriction enzymes EcoRI and NotI. DNA treated with the restriction enzymes was electrophoresed on an agarose gel (1%). An about 1.4 kb of DNA fragment was recovered and ligated to plasmid pMSRαneo digested with restriction enzymes EcoRI and NotI to construct a human-type glucagon receptor expression plasmid DNA “pMSRαneo/hGCGR”.
(2) Preparation of Glucagon Receptor Membrane Protein
A human-type glucagon receptor was expressed using FreeStyle CHO Expression System (Invitrogen). A transient expression in FreeStyle CHO cell was performed using a human-type glucagon receptor expression plasmid DNA “pMSRαneo/hGCGR” and according to the manual attached to the FreeStyle CHO Expression System. The above-mentioned DNA was transfected and the cultured with shaking for 2 days (37° C., 8% CO2, 125 rpm). 2400 ml of culture medium was centrifuged at 2,000 rpm for 10 min and the cells were collected. The collected cells were washed with PBS, suspended in homogenate buffer [10 mM NaHCO3 (pH 7.4), 1 mM EDTA, Complete EDTA-free (Roche, 1 tablet/50 ml)] and disrupted by polytron cell disrupter (Kinematica AG). Disruption solution was centrifuged at 2,000 rpm for 10 min and the supernatant was collected.
(3) Measurement of Glucagon Binding Inhibitory Activity
The plate was stood for 90 min at room temperature. The reaction solution was transferred from the reaction plate to a 96 well unifilter GF/C plate (Perkin Elmer Inc.) using a cell harvester (Perkin Elmer Inc.) and the membrane fraction was collected on the filter by suction. The filter was presoaked in 2 mg/ml of polyethyleneimine to prevent non-specific adsorption of labeled ligand. The filter was washed 4 times with a reaction buffer and dried for 2 hr at 42° C. To each well was added 25 μl of scintillator (MicroScint0; Perkin Elmer Inc.), and the fluorescence amount was measured using a microplate scintillation counter (TopCount NXT™; Perkin Elmer Inc.).
In addition, the inhibitory rate (%) of the well added with the test compound (10 μM; containing 0.4% DMSO) was calculated, using the reaction rate of the well added only with 0.4% DMSO as 0% inhibitory rate, and the reaction rate of the well added with non-labeled glucagon (final concentration 1 μM) as 100% inhibitory rate.

T1 sequence (P47871 26-477): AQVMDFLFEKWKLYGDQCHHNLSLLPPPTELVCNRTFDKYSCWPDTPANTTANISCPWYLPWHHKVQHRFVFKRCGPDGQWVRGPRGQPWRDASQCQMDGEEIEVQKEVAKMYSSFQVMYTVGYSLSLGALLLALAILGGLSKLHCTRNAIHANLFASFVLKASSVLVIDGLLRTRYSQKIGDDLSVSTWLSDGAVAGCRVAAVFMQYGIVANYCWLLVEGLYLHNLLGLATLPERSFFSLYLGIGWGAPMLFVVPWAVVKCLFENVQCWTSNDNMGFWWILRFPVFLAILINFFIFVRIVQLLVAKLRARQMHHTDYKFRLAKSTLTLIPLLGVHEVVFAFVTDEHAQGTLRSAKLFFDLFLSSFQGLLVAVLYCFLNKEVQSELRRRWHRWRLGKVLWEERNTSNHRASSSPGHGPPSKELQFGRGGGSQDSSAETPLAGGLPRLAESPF

Row | IC50 [nM] | inhibition at 10 µM [%] | SMILES
1 | 640 | 86 | COCc1c(C(Nc2ccc(C(=O)N(C)CCC(=O)O)cc2)C2CCCCC2)oc2ccc(F)cc12 (single isomer, unassigned) [Example A49, 3-[{[4-({cyclohexyl[5-fluoro-3-(methoxymethyl)-1-benzofuran-2-yl]methyl}amino)phenyl]carbonyl}(methyl)amino]propanoic acid]
2 | – | 73 | Cc1nn(-c2ccc(C(F)(F)F)cn2)cc1C(Nc1ccc(C(=O)NCCC(=O)O)cc1)C1CCCCC1 (stereo not shown) [Example 1, 3-[({4-[(Cyclohexyl{3-methyl-1-[5-(trifluormethyl)pyridin-2-yl]-1H-pyrazol-4-yl}methyl)amino]phenyl}carbonyl)amino]propanoic acid]
3 | – | 72 | Cc1nn(-c2ccc(C(F)(F)F)cn2)cc1C(Nc1ccc(C(=O)N(C)CCC(=O)O)cc1)C1CCCCC1 (stereo not shown) [Example 2, 3-[({4-[(cyclohexyl{3-methyl-1-[5-(trifluoromethyl)pyridin-2-yl]-1H-pyrazol-4-yl}methyl)amino]phenyl}carbonyl)(methyl)amino]propanoic acid]
4 | – | 74 | CCc1nn(-c2ccc(C(F)(F)F)cn2)cc1C(Nc1ccc(C(=O)NCCC(=O)O)cc1)C1CCCCC1 (stereo not shown) [Example 3, 3-[({4-[(cyclohexyl{3-ethyl-1-[5-(trifluoromethyl)pyridin-2-yl]-1H-pyrazol-4-yl}methyl)amino]phenyl}carbonyl)amino]propanoic acid]
5 | – | 77 | CCc1nn(-c2ccc(C(F)(F)F)cn2)cc1C(Nc1ccc(C(=O)N(C)CCC(=O)O)cc1)C1CCCCC1 (stereo not shown) [Example 4, 3-[({4-[(cyclohexyl{3-ethyl-1-[5-(trifluoromethyl)pyridin-2-yl]-1H-pyrazol-4-yl}methyl)amino]phenyl}carbonyl)(methyl)amino]propanoic acid]
6 | – | 73 | CCCc1nn(-c2ccc(C(F)(F)F)cn2)cc1C(Nc1ccc(C(=O)NCCC(=O)O)cc1)C1CCCCC1 (stereo not shown) [Example 5, 3-[({4-[(cyclohexyl{3-propyl-1-[5-(trifluoromethyl)pyridin-2-yl]-1H-pyrazol-4-yl}methyl)amino]phenyl}carbonyl)amino]propanoic acid]
7 | – | 75 | CCCc1nn(-c2ccc(C(F)(F)F)cn2)cc1C(Nc1ccc(C(=O)N(C)CCC(=O)O)cc1)C1CCCCC1 (stereo not shown) [Example 6, 3-[({4-[(cyclohexyl{3-propyl-1-[5-(trifluoromethyl)pyridin-2-yl]-1H-pyrazol-4-yl}methyl)amino]phenyl}carbonyl)(methyl)amino]propanoic acid]
8 | – | 72 | CC(C)c1nn(-c2ccc(C(F)(F)F)cn2)cc1C(Nc1ccc(C(=O)NCCC(=O)O)cc1)C1CCCCC1 (stereo not shown) [Example 7, 3-[({4-[(cyclohexyl{3-(1-methylethyl)-1-[5-(trifluoromethyl)pyridin-2-yl]-1H-pyrazol-4-yl}methyl)amino]phenyl}carbonyl)amino]propanoic acid]
9 | 410 | 75 | CC(C)c1nn(-c2ccc(C(F)(F)F)cn2)cc1C(Nc1ccc(C(=O)N(C)CCC(=O)O)cc1)C1CCCCC1 (stereo not shown) [Example 8, 3-[({4-[(cyclohexyl{3-(1-methylethyl)-1-[5-(trifluoromethyl)pyridin-2-yl]-1H-pyrazol-4-yl}methyl)amino]phenyl}carbonyl)(methyl)amino]propanoic acid]
10 | – | 74 | O=C(O)CCNC(=O)c1ccc(NC(c2cn(-c3ccc(C(F)(F)F)cn3)nc2C2CC2)C2CCCCC2)cc1 (stereo not shown) [Example 9, 3-[({4-[(cyclohexyl{3-cyclopropyl-1-[5-(trifluoromethyl)pyridin-2-yl]-1H-pyrazol-4-yl}methyl)amino]phenyl}carbonyl)amino]propanoic acid]
11 | – | 76 | CN(CCC(=O)O)C(=O)c1ccc(NC(c2cn(-c3ccc(C(F)(F)F)cn3)nc2C2CC2)C2CCCCC2)cc1 (stereo not shown) [Example 10, 3-[({4-[(cyclohexyl{3-cyclopropyl-1-[5-(trifluoromethyl)pyridin-2-yl]-1H-pyrazol-4-yl}methyl)amino]phenyl}carbonyl)(methyl)amino]propanoic acid]
12 | – | 73 | O=C(O)CCNC(=O)c1ccc(NC(c2cn(-c3ccc(C(F)(F)F)cn3)nc2CCc2ccccc2)C2CCCCC2)cc1 (stereo not shown) [Example 11, 3-[({4-[(cyclohexyl{3-(2-phenylethyl)-1-[5-(trifluoromethyl)pyridin-2-yl]-1H-pyrazol-4-yl}methyl)amino]phenyl}carbonyl)amino]propanoic acid]
13 | – | 74 | CN(CCC(=O)O)C(=O)c1ccc(NC(c2cn(-c3ccc(C(F)(F)F)cn3)nc2CCc2ccccc2)C2CCCCC2)cc1 (stereo not shown) [Example 12, 3-[({4-[(cyclohexyl{3-(2-phenylethyl)-1-[5-(trifluoromethyl)pyridin-2-yl]-1H-pyrazol-4-yl}methyl)amino]phenyl}carbonyl)(methyl)amino]propanoic acid]
14 | – | 71 | CC(C)(C)c1nn(-c2ccc(C(F)(F)F)cn2)cc1C(Nc1ccc(C(=O)NCCC(=O)O)cc1)C1CCCCC1 (stereo not shown) [Example 13, 3-{[(4-{[{3-tert-butyl-1-[5-(trifluoromethyl)pyridin-2-yl]-1H-pyrazol-4-yl}(cyclohexyl)methyl]amino}phenyl)carbonyl]amino}propanoic acid]
15 | – | 71 | CN(CCC(=O)O)C(=O)c1ccc(NC(c2cn(-c3ccc(C(F)(F)F)cn3)nc2C(C)(C)C)C2CCCCC2)cc1 (stereo not shown) [Example 14, 3-{[(4-{[{3-tert-butyl-1-[5-(trifluoromethyl)pyridin-2-yl]-1H-pyrazol-4-yl}(cyclohexyl)methyl]amino}phenyl)carbonyl](methyl)amino}-propanoic acid]
16 | – | 72 | O=C(O)CCNC(=O)c1ccc(NC(c2cn(-c3ccccc3)nc2CCc2ccccc2)C2CCCCC2)cc1 (stereo not shown) [Example 15, 3-({[4-({cyclohexyl[1-phenyl-3-(2-phenylethyl)-1H-pyrazol-4-yl]methyl}amino)phenyl]carbonyl}amino)propanoic acid]
17 | – | 63 | CN(CCC(=O)O)C(=O)c1ccc(NC(c2cn(-c3ccccc3)nc2CCc2ccccc2)C2CCCCC2)cc1 (stereo not shown) [Example 16, 3-[{[4-({cyclohexyl[1-phenyl-3-(2-phenylethyl)-1H-pyrazol-4-yl]methyl}amino)phenyl]carbonyl}(methyl)amino]propanoic acid]
18 | – | 80 | Cc1nn(-c2ccccc2)cc1C(Nc1ccc(C(=O)NCCC(=O)O)cc1)C1CCCCC1 (stereo not shown) [Example 17, 3-{[(4-{[cyclohexyl(3-methyl-1-phenyl-1H-pyrazol-4-yl)methyl]amino}phenyl)carbonyl]amino}propanoic acid]
19 | – | 72 | Cc1nn(-c2ccccc2)cc1C(Nc1ccc(C(=O)N(C)CCC(=O)O)cc1)C1CCCCC1 (stereo not shown) [Example 18, 3-{[(4-{[cyclohexyl(3-methyl-1-phenyl-1H-pyrazol-4-yl)methyl]amino}phenyl)carbonyl](methyl)amino}propanoic acid]
20 | – | 80 | Cc1nn(-c2ccc(Cl)cc2)cc1C(Nc1ccc(C(=O)NCCC(=O)O)cc1)C1CCCCC1 (stereo not shown) [Example 19, 3-({[4-({[1-(4-chlorophenyl)-3-methyl-1H-pyrazol-4-yl](cyclohexyl)methyl}amino)phenyl]carbonyl}amino)propanoic acid]
21 | – | 79 | Cc1nn(-c2ccc(Cl)cc2)cc1C(Nc1ccc(C(=O)N(C)CCC(=O)O)cc1)C1CCCCC1 (stereo not shown) [Example 20, 3-[{[4-({[1-(4-chlorophenyl)-3-methyl-1H-pyrazol-4-yl](cyclohexyl)methyl}amino)phenyl]carbonyl}(methyl)amino]-propanoic acid]
22 | – | 77 | Cc1cc(F)ccc1-n1cc(C(Nc2ccc(C(=O)NCCC(=O)O)cc2)C2CCCCC2)c(C)n1 (stereo not shown) [Example 21, 3-({[4-({[1-(4-fluoro-2-methylphenyl)-3-methyl-1H-pyrazol-4-yl](cyclohexyl)methyl}amino)phenyl]carbonyl}amino)propanoic acid]
23 | – | 61 | Cc1cc(F)ccc1-n1cc(C(Nc2ccc(C(=O)N(C)CCC(=O)O)cc2)C2CCCCC2)c(C)n1 (stereo not shown) [Example 22, 3-[{[4-({[1-(4-fluoro-2-methylphenyl)-3-methyl-1H-pyrazol-4-yl](cyclohexyl)methyl}amino)phenyl]carbonyl}(methyl)amino]-propanoic acid]
